Source: BindingDB's records for doi:10.7270/Q2TX3CTT (Broad Institute, 2010)

Target: Glycogen synthase kinase-3 beta (Homo sapiens, UniProt P49841)
Assay: GSK3beta kinase inhibitor potency, dose response, biochemical, luminescence, cell-free homogeneous, retest (AID 434954)

Glycogen synthase kinase-3 beta, sequence (P49841 whole entry): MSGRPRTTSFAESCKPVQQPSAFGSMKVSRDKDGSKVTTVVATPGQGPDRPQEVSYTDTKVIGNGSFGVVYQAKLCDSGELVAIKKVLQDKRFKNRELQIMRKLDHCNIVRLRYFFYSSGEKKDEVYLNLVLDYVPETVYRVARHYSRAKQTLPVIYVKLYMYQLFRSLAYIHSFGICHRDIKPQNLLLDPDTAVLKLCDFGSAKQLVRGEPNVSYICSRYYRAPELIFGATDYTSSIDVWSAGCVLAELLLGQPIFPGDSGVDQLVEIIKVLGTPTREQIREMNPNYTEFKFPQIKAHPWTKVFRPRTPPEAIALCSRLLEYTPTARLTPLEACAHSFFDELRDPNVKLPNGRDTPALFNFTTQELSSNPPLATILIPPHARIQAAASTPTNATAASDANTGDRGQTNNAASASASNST

| EC50 | SMILES |
| --- | --- |
| > 300 µM | COc1ccc(OC)c(NCc2nnc(-c3ccccc3)o2)c1 [MLS001208999] |
| 42.6 µM | COc1cc(/C=C2/C(=O)NN(c3cccc(Cl)c3)C2=O)cc(Br)c1O [MLS001210835] |
| > 300 µM | CC1=C(C#N)C(=O)NC(=O)C1=NNc1ccc(Br)cc1C(=O)O [MLS001213177] |
| 39.8 µM | CC1=C(C#N)C(=O)NC(=O)C1=NNc1ccc(Cl)c(C(=O)O)c1 [MLS001213189] |
| 13.5 µM | CC(C)CNc1nc(N)c([N+](=O)[O-])c(NC2CCCCC2)n1 [MLS001213331] |
| > 300 µM | O=C(O)c1cccc(Nc2ccnc(Nc3cccc(C(=O)O)c3)n2)c1 [MLS001213333] |
| 2.01 µM | Nc1nc(NCCc2ccccc2)nc(NCCO)c1[N+](=O)[O-] [MLS001213372] |
| 21.7 µM | Nc1nc(NCCOCCO)nc(NCc2ccccc2)c1[N+](=O)[O-] [MLS001213400] |
| 3.15 µM | CN(C)CCCNc1nc(N)c([N+](=O)[O-])c(NC2CCCCC2)n1 [MLS001213448] |
| > 300 µM | COc1ccccc1-n1c(S)nnc1-c1ccco1 [MLS001214684] |
| > 300 µM | CCCCn1nc(NC(=O)CCC)c2cc3cc(OC)ccc3nc21 [MLS001214871] |
| > 300 µM | COC(CNc1nc(SC)nc2sc3c(c12)CCN(C)C3)OC [MLS001215082] |
| > 300 µM | COc1ccc(OC)c(Nc2nc(N(C)c3ccccc3)nc(N)c2[N+](=O)[O-])c1 [MLS001215240] |
| > 300 µM | CCC(NC(=O)Cc1c(C)c2cc3c(cc2oc1=O)OC(C)(C)CC3)C(=O)O (centres undefined) [MLS001215946] |
| > 300 µM | CCn1c(SCC(=O)Nc2cc(Cl)ccc2OC)nnc1C1CC1 [MLS001220637] |
| > 300 µM | CCOc1ccccc1NC(=O)c1nnn(-c2ccc3c(c2)OCCO3)c1N [MLS001221013] |
| 19.1 µM | COc1ccc(CNC(=O)CN(Cc2ccc(OC)cc2)C(=O)CCC(=O)Nc2nccs2)cc1 [MLS001222948] |
| > 300 µM | Cc1onc(-c2ccccc2Cl)c1C(=O)NNC(=O)c1ccc(F)cc1 [MLS001223650] |
| > 300 µM | CCOc1ccc(OCC)c(NC(=O)CSc2nnc(C3CC3)n2CC)c1 [MLS001223718] |

| EC50 | SMILES |
| --- | --- |
| > 300 µM | O=C(Nc1ccccc1)Nc1cnccn1 [MLS001229949] |
| > 300 µM | O=C(NN=Cc1cccnc1)c1cc(-c2ccccc2)nc2c(Cl)cccc12 [MLS001230128] |
| > 300 µM | NS(=O)(=O)c1ccc(CCNC(=O)C(=O)c2cn(CC(=O)N3CCCC3)c3ccccc23)cc1 [MLS001235966] |
| > 300 µM | Cc1cccc(C(=O)NCC(c2ccco2)N2CCc3ccccc32)c1 (centres undefined) [MLS001237444] |
| > 300 µM | Cc1cc(C)c2nc(N(CCN(C)C)C(=O)c3ccc(S(=O)(=O)N(C)CC4CCCO4)cc3)sc2c1 (centres undefined) [MLS001239556] |
| > 300 µM | O=S(=O)(NCCC1CC1(Cl)Cl)c1ccc(Cl)cc1 (centres undefined) [N1-[2-(2,2-dichlorocyclopropyl)ethyl]-4-chlorobenzene-1-sulfonamide] |
| > 300 µM | COc1ccc(OC)c(Nc2nc(N)c([N+](=O)[O-])c(NCc3ccccc3)n2)c1 [N2-(2,5-dimethoxyphenyl)-5-nitro-N4-(phenylmethyl)pyrimidine-2,4,6-triamine] |
| 3.06 µM | NCCCNc1nc(N)c([N+](=O)[O-])c(NC2CCCCC2)n1 [N2-(3-aminopropyl)-N4-cyclohexyl-5-nitropyrimidine-2,4,6-triamine] |
| > 300 µM | Cc1ccc(Nc2nc(N)c([N+](=O)[O-])c(NCc3ccccc3)n2)cc1 [N2-(4-methylphenyl)-5-nitro-N4-(phenylmethyl)pyrimidine-2,4,6-triamine] |
| 2.13 µM | COc1ccccc1Nc1nc(NCCCN(C)C)nc(N)c1[N+](=O)[O-] [N2-[3-(dimethylamino)propyl]-N4-(2-methoxyphenyl)-5-nitro-pyrimidine-2,4,6-triamine] |
| 0.539 µM | CCC(C)Nc1nc(N)c([N+](=O)[O-])c(Nc2cc(OC)ccc2OC)n1 (centres undefined) [N2-butan-2-yl-N4-(2,5-dimethoxyphenyl)-5-nitro-pyrimidine-2,4,6-triamine] |
| > 300 µM | CC1CCCC(NC(=O)C2CCN(C(=O)Nc3ccccc3)CC2)C1C (centres undefined) [N4-(2,3-dimethylcyclohexyl)-N1-phenyl-piperidine-1,4-dicarboxamide] |
| 0.742 µM | COCCCNc1nc(N)c([N+](=O)[O-])c(Nc2cc(OC)ccc2OC)n1 [N4-(2,5-dimethoxyphenyl)-N2-(3-methoxypropyl)-5-nitro-pyrimidine-2,4,6-triamine] |
| 3.44 µM | CNc1nc(N)c([N+](=O)[O-])c(Nc2ccccc2OC)n1 [N4-(2-methoxyphenyl)-N2-methyl-5-nitro-pyrimidine-2,4,6-triamine] |
| 11.8 µM | C=CCNc1nc(N)c([N+](=O)[O-])c(Nc2cccc(Cl)c2)n1 [N4-(3-chlorophenyl)-5-nitro-N2-prop-2-enyl-pyrimidine-2,4,6-triamine] |
| 7.14 µM | Nc1nc(NCC2CCCO2)nc(Nc2cccc(F)c2)c1[N+](=O)[O-] (centres undefined) [N4-(3-fluorophenyl)-5-nitro-N2-(2-oxolanylmethyl)pyrimidine-2,4,6-triamine] |
| > 300 µM | Cc1cccc(Nc2nc(N3CCN(C)CC3)nc(N)c2[N+](=O)[O-])c1 [N4-(3-methylphenyl)-2-(4-methylpiperazin-1-yl)-5-nitro-pyrimidine-4,6-diamine] |
| 1.72 µM | Cc1cccc(Nc2nc(NCCCN3CCOCC3)nc(N)c2[N+](=O)[O-])c1 [N4-(3-methylphenyl)-N2-(3-morpholin-4-ylpropyl)-5-nitro-pyrimidine-2,4,6-triamine] |
| > 300 µM | Cc1ccc(CNc2nc(N)c([N+](=O)[O-])c(Nc3ccc(F)cc3)n2)cc1 [N4-(4-fluorophenyl)-N2-[(4-methylphenyl)methyl]-5-nitro-pyrimidine-2,4,6-triamine] |

| EC50 | SMILES |
| --- | --- |
| 1.11 µM | COc1ccc(Nc2nc(NCCCN3CCOCC3)nc(N)c2[N+](=O)[O-])cc1 [N4-(4-methoxyphenyl)-N2-(3-morpholin-4-ylpropyl)-5-nitro-pyrimidine-2,4,6-triamine] |
| > 300 µM | Cc1ccc(Nc2nc(NCCCN3CCOCC3)nc(N)c2[N+](=O)[O-])cc1 [N4-(4-methylphenyl)-N2-(3-morpholin-4-ylpropyl)-5-nitro-pyrimidine-2,4,6-triamine] |
| 7.68 µM | Nc1nc(Nc2ccccc2)nc(NC2CCCCC2)c1[N+](=O)[O-] [N4-cyclohexyl-5-nitro-N2-phenylpyrimidine-2,4,6-triamine] |
| > 300 µM | COc1ccc(OC)c(Nc2nc(N)c([N+](=O)[O-])c(NC3CCCCC3)n2)c1 [N4-cyclohexyl-N2-(2,5-dimethoxyphenyl)-5-nitropyrimidine-2,4,6-triamine] |
| > 300 µM | CCOc1cc(C=NN=C(N)N)ccc1OCc1ccc(Cl)cc1 [N''-{4-[(4-chlorobenzyl)oxy]-3-ethoxybenzylidene}carbonohydrazonic diamide] |
| > 300 µM | CCN1CCN(c2cc(C)c3cc(NC(=O)CCC(=O)Nc4ccc(OC)cc4OC)ccc3n2)CC1 [N'-(2,4-dimethoxyphenyl)-N-[2-(4-ethyl-1-piperazinyl)-4-methyl-6-quinolinyl]butanediamide] |
| > 300 µM | COc1ccc(OC)c(Nc2nc(NCc3ccco3)nc(N)c2[N+](=O)[O-])c1 [N'-(2,5-Dimethoxy-phenyl)-N-furan-2-ylmethyl-5-nitro-pyrimidine-2,4,6-triamine] |
| 0.584 µM | COc1ccccc1Nc1nc(NCCC(C)C)nc(N)c1[N+](=O)[O-] [N'-(2-Methoxy-phenyl)-N-(3-methyl-butyl)-5-nitro-pyrimidine-2,4,6-triamine] |
| > 300 µM | COc1cccc(N(CC(=O)NCC2CCCO2)C(=O)CCC(=O)Nc2nccs2)c1 (centres undefined) [N'-(3-methoxyphenyl)-N'-[2-oxo-2-(oxolan-2-ylmethylamino)ethyl]-N-(1,3-thiazol-2-yl)butanediamide] |
| 2.29 µM | Nc1nc(NCC2CCCO2)nc(Nc2ccc(Cl)cc2)c1[N+](=O)[O-] (centres undefined) [N'-(4-Chloro-phenyl)-5-nitro-N-(tetrahydro-furan-2-ylmethyl)-pyrimidine-2,4,6-triamine] |
| 1.47 µM | Nc1nc(NCCCN2CCOCC2)nc(Nc2ccc(Cl)cc2)c1[N+](=O)[O-] [N'-(4-Chloro-phenyl)-N-(3-morpholin-4-yl-propyl)-5-nitro-pyrimidine-2,4,6-triamine] |
| > 300 µM | COc1ccc(Nc2nc(NCC3CCCO3)nc(N)c2[N+](=O)[O-])cc1 (centres undefined) [N'-(4-Methoxy-phenyl)-5-nitro-N-(tetrahydro-furan-2-ylmethyl)-pyrimidine-2,4,6-triamine] |
| 8.32 µM | Nc1nc(NCCCN2CCOCC2)nc(NCc2ccccc2)c1[N+](=O)[O-] [N'-Benzyl-N-(3-morpholin-4-yl-propyl)-5-nitro-pyrimidine-2,4,6-triamine] |
| > 300 µM | CCOc1ccc(Nc2nc(N)c([N+](=O)[O-])c(NCc3ccccc3)n2)cc1 [N'-Benzyl-N-(4-ethoxy-phenyl)-5-nitro-pyrimidine-2,4,6-triamine] |
| > 300 µM | COc1ccc(CN(CC(=O)NCc2ccco2)C(=O)CCC(=O)Nc2ccccn2)cc1 [N'-[2-(2-furanylmethylamino)-2-oxoethyl]-N'-[(4-methoxyphenyl)methyl]-N-(2-pyridinyl)butanediamide] |
| > 300 µM | Cc1cc(NC(=O)CCC(=O)N(c2cccnc2)C(C(=O)NC2CCCC2)c2ccccc2F)no1 (centres undefined) [N'-[2-(cyclopentylamino)-1-(2-fluorophenyl)-2-oxoethyl]-N-(5-methyl-1,2-oxazol-3-yl)-N'-pyridin-3-ylbutanediamide] |
| 11.1 µM | COc1ccc(CNC(=O)CN(Cc2ccccc2)C(=O)CCC(=O)Nc2nccs2)cc1 [N'-[2-[(4-methoxyphenyl)methylamino]-2-oxoethyl]-N'-(phenylmethyl)-N-(2-thiazolyl)butanediamide] |
| > 300 µM | CCn1c(SCC(=O)NNC(=O)c2ccc(C)cc2)nnc1C1CC1 [N'-[2-[(5-cyclopropyl-4-ethyl-1,2,4-triazol-3-yl)sulfanyl]acetyl]-4-methylbenzohydrazide] |
| > 300 µM | O=C(CN(Cc1cccs1)C(=O)CCC(=O)Nc1ccccn1)NCc1ccccc1 [N'-[2-oxo-2-[(phenylmethyl)amino]ethyl]-N-(2-pyridinyl)-N'-(thiophen-2-ylmethyl)butanediamide] |

| SMILES | EC50 |
| --- | --- |
| Cc1cccc(C(=O)NC2CC3CCCC(C2)N3Cc2ccccc2)c1 (centres undefined) [MLS001212730] | > 300 µM |
| C[C@H]1[C@@H](c2ccccc2)O[C@@H](c2ccccc2Br)N1C [MLS001242758] | > 300 µM |
